Molecular target: T1, MC4R (Homo sapiens, UniProt P32245)
T1 construct: expressed in transfected cells; host or cells: HEK293 (transient transfection, pcDNA3_MC4R plus CRE-luciferase reporter pGL4.29)
Assay: cAMP reporter gene assay
Format: cell-based
Conditions: normalized to maximal setmelanotide response; n ≥ 2
Description: HEK293 cells were cultured under standard conditions.[33] Cyclic adenosine monophosphate (cAMP) reporter gene assay was carried out with HEK293 cells transiently transfected with pGL4.29[luc2P/CRE/Hygro] (Promega, Madison, WI, USA) and pcDNA3_MC4R plasmids. For transfection, a master mix consisting of 0.6 µL Lipofectamine (Invitrogen by Thermo Fisher) per 25 µL Opti-MEM (Gibco, Grand Island, NY, USA) per well was preincubated at room temperature for 5 min and then gently mixed with 0.125 µg of both plasmids per 25 µL Opti-MEM per well and incubated for 30 min at room temperature. […] Two hundred microlitres of the mixture was added per well to a white 96-well plate (Greiner Bio-One International GmbH, Kremsmünster, Austria), previously coated with 0.1 mg/mL poly-D-lysine (Sigma-Aldrich) in Dulbecco’s phosphate-buffered saline (DPBS) for 1 h at room temperature. Cells were incubated overnight at humidified atmosphere (37°C, 5% CO2). […] The medium was removed, and cells were starved in 50 μL of DMEM/F12 (1:1) without FBS at humidified atmosphere for 1 h. One millimolar peptide stocks in dimethyl sulfoxide (DMSO, Sigma-Aldrich) were diluted in DMEM/F12 (1:1) to desired concentrations. […] The plate was transferred to a plate reader (Infinite M200, Tecan Trading AG, Männedorf, Switzerland), briefly shaken and incubated 5 min at room temperature. […]

T1 sequence (P32245 whole entry, species assumed): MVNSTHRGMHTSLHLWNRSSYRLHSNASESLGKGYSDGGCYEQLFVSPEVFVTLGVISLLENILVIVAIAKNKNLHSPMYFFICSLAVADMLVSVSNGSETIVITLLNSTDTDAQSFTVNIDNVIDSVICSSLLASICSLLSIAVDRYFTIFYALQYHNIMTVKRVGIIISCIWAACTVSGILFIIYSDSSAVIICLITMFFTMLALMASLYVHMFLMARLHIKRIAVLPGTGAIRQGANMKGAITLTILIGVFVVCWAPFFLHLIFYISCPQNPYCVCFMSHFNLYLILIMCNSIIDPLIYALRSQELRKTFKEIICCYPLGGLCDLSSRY

CC(=O)N[C@@H](CCCNC(=N)N)C(=O)N[C@H]1CSSC[C@@H](C(N)=O)NC(=O)[C@H](Cc2c[nH]c3ccccc23)NC(=O)[C@H](CCCNC(=N)N)NC(=O)[C@@H](Cc2ccccc2)NC(=O)[C@H](Cc2c[nH]cn2)NC(=O)[C@@H](C)NC1=O [peptide 1.1, Ac-R^bCaHfRW^bC-NH2]
Emax: 100 ± 4%
